Assay results: ChEMBL document CHEMBL1142329, “Synthesis and antispasmodic activity of lidocaine derivatives endowed with reduced local anesthetic action” (Bioorg Med Chem Lett, 2008)

Assays:
[1] = system: Rattus norvegicus; assay: Anesthetic activity in rat at 2.0 uMol/site assessed as duration of full recovery of sensory block; assay type: functional
[2] = system: Rattus norvegicus; assay: Anesthetic activity in rat at 4.0 uMol/site assessed as duration of full recovery of sensory block; assay type: functional
[3] = system: Rattus norvegicus; assay: Anesthetic activity in rat at 0.5 uMol/site assessed as duration of full recovery of sensory block; assay type: functional
[4] = system: Rattus norvegicus; assay: Anesthetic activity in rat at 1.0 uMol/site assessed as duration of full recovery of sensory block; assay type: functional
[5] = system: Ileum; assay: Antispasmodic activity in guinea pig ileum assessed as inhibition of allergen-induced contraction; assay type: functional, tissue-based; settings: Cavia porcellus
[6] = Activity at sodium channel assessed as blockade of sodium current
[7] = system: Ileum; assay: Antispasmodic activity in guinea pig ileum assessed as inhibition of histamine-induced contraction; assay type: functional, tissue-based; settings: Cavia porcellus

SMILES: CCN(CC)CCC(=O)Nc1c(C)cccc1C
- Time [1]: 194 min
- Time [2]: 311 min
- Time [3]: 72 min
- Time [4]: 107 min

SMILES: CCN(CC)CC(=O)Nc1c(C)cccc1C [LIDOCAINE]
- Time [1]: 103 min
- Time [2]: 164 min
- IC50 [5]: 1430 µM
- Time [3]: 37 min
- IC50 [6]: 180 µM
- Time [4]: 74 min
- IC50 [7]: 1410 µM

SMILES: CCN(CC)CCC(=O)Nc1ccc(C)cc1C
- Time [1]: 166 min
- Time [2]: 239 min
- Time [3]: 35 min
- Time [4]: 89 min

SMILES: CCN(CC)CC(=O)Nc1ccc(C)cc1C
- Time [1]: 63 min
- Time [2]: 92 min
- IC50 [5]: 190 µM
- Time [3]: 17 min
- Time [4]: 32 min
- IC50 [7]: 310 µM

SMILES: CCN(CC)CC(=O)Nc1cc(C)ccc1C
- Time [1]: 40 min
- Time [2]: 54 min
- IC50 [5]: 120 µM
- Time [3]: 19 min
- Time [4]: 28 min
- IC50 [7]: 140 µM

SMILES: CCN(CC)CC(=O)Nc1cccc(C(F)(F)F)c1
- Time [1]: 18 min
- Time [2]: 18 min
- Time [3]: 17 min
- Time [4]: 19 min

SMILES: CCN(CC)CC(=O)Nc1cc(C)cc(C)c1
- Time [1]: 134 min
- Time [2]: 181 min
- Time [3]: 44 min
- Time [4]: 91 min

SMILES: CCN(CC)CCC(=O)Nc1cccc(C)c1C
- Time [1]: 91 min
- Time [2]: 139 min
- Time [3]: 22 min
- Time [4]: 49 min

SMILES: CCN(CC)CC(=O)Nc1ccc(C)c(C)c1
- Time [1]: 32 min
- Time [2]: 55 min
- Time [3]: 11 min
- Time [4]: 20 min

SMILES: CCN(CC)CC(=O)Nc1ccccc1C
- Time [1]: 48 min
- Time [2]: 63 min
- IC50 [5]: 160 µM
- Time [3]: 17 min
- Time [4]: 28 min
- IC50 [7]: 160 µM

SMILES: CCN(CC)CCC(=O)Nc1ccc(C)c(C)c1
- Time [1]: 80 min
- Time [2]: 107 min
- Time [3]: 26 min
- Time [4]: 48 min

SMILES: CCN(CC)CC(=O)Nc1cccc(C)c1C
- Time [1]: 25 min
- Time [2]: 34 min
- IC50 [5]: 330 µM
- Time [3]: 7 min
- Time [4]: 16 min
- IC50 [7]: 380 µM

SMILES: CCN(CC)CC(=O)Nc1ccccc1C(F)(F)F
- Time [1]: 15 min
- Time [2]: 24 min
- IC50 [5]: 50 µM
- Time [3]: 8 min
- IC50 [6]: 25400 µM
- Time [4]: 13 min
- IC50 [7]: 100 µM

SMILES: CCN(CC)CCC(=O)Nc1cc(C)cc(C)c1
- Time [1]: 240 min
- Time [2]: 377 min
- Time [3]: 88 min
- Time [4]: 118 min

SMILES: CCN(CC)CCC(=O)Nc1cc(C)ccc1C
- Time [1]: 72 min
- Time [2]: 101 min
- Time [3]: 22 min
- Time [4]: 47 min

SMILES: CCN(CC)CC(=O)Nc1ccc(C(F)(F)F)cc1
- Time [1]: 19 min
- Time [2]: 21 min
- Time [3]: 19 min
- Time [4]: 19 min
